Experimental data taken from US20050002943A1, “Amp-kinase agonists or adenosine pro-drugs as immuno-stimulating agents” (priority 2001, published 2005).
“Also recorded” adds a separate entry of the source.

Key:
BALB/c mice [1] = experiment: Antigen (NP)-specific antibody response to NP-KLH, serum ELISA (Example 1); type: in vivo
Method: BALB/c mice were injected intraperitoneally with 200 μl of saline, aqueous solution (phosphate buffer solution), or with 200 μl of phosphate buffer solution containing AICA-riboside (10 mg), NP-KLH (100 μg) or NP-KLH (100 μg)+AICA-riboside (10 mg). Height days after immunization, mice were bled and serum levels of antigen (NP)-specific antibodies were determined by ELISA according to standard procedure using isotype-specific reagents.

BALB/c mice [2] = experiment: Primary, secondary and day 120 Ars-specific antibody response to Ars-KLH, serum ELISA (Examples 2 and 3); type: in vivo
Method: Three groups of BALB/c mice received an intraperitoneal injection of Ars-KLH (100 μg), Ars-KLH (100 μg)+AICA-riboside (10 mg) or Ars-KLH (100 μg)+Alum (50 μl). 21 days after immunization, mice were bled and serum levels of antigen (Ars)-specific antibodies were determined by ELISA as previously described (primary response). On day 22, all mice received a second injection (boost) of Ars-KLH (100 μg) i.p. Mice were bled 8 days after the antigen boost and serum levels of Ars-specific antibodies were determined by ELISA (secondary response). The results are illustrated in FIG. 2.
Mice immunized according to the protocol described in example 2 were bled 120 days after the first encounter with the antigen (in the presence or absence of adjuvant) and serum levels of antigen specific antibodies were determined by ELISA as described previously (secondary response, day 120).

BALB/c mice [3] = experiment: Primary and secondary antibody response to human gamma globulins (HGG), serum ELISA (Example 4); type: in vivo; conditions: HGG 15 μg + AICA-riboside 10 mg i.p., boost day 25
Method: BALB/c mice received an intraperitoneal injection of HGG (15 μg) or HGG (15 μg)+AICA-riboside (10 mg). 16 days after immunization, mice were bled and serum levels of HGG-specific antibodies were determined by ELISA as described. On day 25, the two groups of mice received respectively a boost of HGG (15 μg) and of HGG (15 μg)+AICA-riboside (10 mg) intraperitoneally. Mice were bled 10 days after the boost and serum levels of HGG-specific antibodies were determined by ELISA as described previously (secondary response). The results are illustrated in FIG. 4.

BALB/c mice [4] = experiment: Ars-KLH antibody response over a range of AICA-riboside doses (Example 5); type: in vivo; conditions: AICA-riboside 3 to 0.3 mg i.p. with Ars-KLH 100 μg; primary and secondary response
Method: BALB/c mice received an intraperitoneal injection of Ars-KLH (100 μg) or Ars-KLH (100 μg)+AICA-riboside at concentrations ranging from 3 to 0.3 mg. 21 days after immunization, mice were bled and serum levels of antigen (Ars)-specific antibodies were determined by ELISA according to standard procedure using isotype-specific reagents (primary response). On day 22, all mice received a boost of Ars-KLH (50 μg) intraperitoneally. Mice were bled 14 days after the antigen boost and serum levels of Ars-specific antibodies were determined by ELISA as described previously (secondary response). The results are illustrated in FIG. 5.

BALB/c mice [5] = experiment: Ars-KLH antibody response, timing of AICA-riboside injection relative to antigen (Example 6); type: in vivo; conditions: AICA-riboside 10 mg i.p. at d-1, d0 or d+1, separate site from Ars-KLH 100 μg
Method: BALB/c mice received an intraperitoneal injection of AICA-riboside (10 mg) one day before (d-1), the same day (d0) or the day after (d+1) the intraperitoneal injection (in a separate site) of Ars-KLH (100 μg). A fourth group (n.t.) received an intraperitoneal injection of phosphate buffer solution the day of the antigen administration. 20 days after immunization, mice were bled and serum levels of Ars-specific antibodies were determined by ELISA according to standard procedures using isotype-specific reagents (primary response). On day 21, all mice received a boost of Ars-KLH (50 μg) intraperitoneally. Mice were bled 14 days after the antigen boost and serum levels of Ars-specific antibodies were determined by ELISA as described previously (secondary response).

BALB/c mice [6] = experiment: NP-KLH antibody response in anti-CD4 treated mice (Example 7); type: in vivo; conditions: anti-CD4 (GK1.5) treated mice; NP-KLH 100 μg + AICA-riboside 10 mg i.p.; day 10
Method: BALB/c mice, were treated or not with anti-CD4 antibodies (two intraperitoneal injections of 200 μl of the depleting rat anti-mouse anti-CD4 antibody, clone GK1.5, on days 0 and 5). On day 2 mice were injected intraperitoneally with NP-KLH (100 μg) or NP-KLH (100 μg)+AICA-riboside (10 mg). 10 days after immunization, mice were bled and serum levels of NP-specific antibodies were determined by ELISA according to standard procedures using isotype specific reagents.

BALB/c mice [7] = experiment: Size of draining lymph nodes after footpad injection (Example 8); type: in vivo; conditions: rear footpad injection with NP-KLH 25 μg; AICA-riboside 2.5 mg or Alum 12.5 μg; 8 days
Method: BALB/c mice were injected with NP-KLH (25 μg), NP-KLH (25 μg)+AICA-riboside (2.5 mg) or NP-KLH (25 μg)+Alum (12.5 μg) in the two rear footpads. 8 days after injection, mice were sacrificed and their posterior lymph nodes were collected and immediately analyzed for size.

BALB/c mice [8] = experiment: Local inflammatory response at injection site, GR-1 immunohistochemistry (Example 9); type: in vivo; conditions: rear footpad injection; AICA-riboside 2.5 mg or alum 12.5 μg; 8 or 24 hours
Method: BALB/c mice were injected with saline (50 μl PBS), AICA-boside (2.5 mg) or alum (12.5 μg) in the two rear footpads. 8 or 24 hours after treatment mice were sacrificed, and thin sections of the tissues surrounding the injection site (marked by a circle) were analyzed by immunohistochemistry. Inflammatory cells (mostly granulocytes and monocytes) were identified using an antibody directed to the murine GR-1 molecule.

BALB/c mice [9] = experiment: Primary antibody response to Ars-KLH with AICAR or 6-MPR, serum ELISA (Example 10); type: in vivo; conditions: 3 mg i.p. with Ars-KLH 100 μg; for antigen-specific IgG antibodies: vs antigen without adjuvant, day 19
Method: BALB/c micereceived an intraperitoneal injection of Ars-KLH (100 μg), Ars-KLH+AICAR (3 mg) or Ars-KLH+6-MPR (3 mg). 19 days after Immunization, mice were bled and serum levels of antigen specific antibodies were determined by ELISA according to standard procedure using isotype-specific rat Mab.

mice = experiment: Serum antibody response in mice to protein antigens mixed with AICA-riboside (general studies); type: in vivo
Description: (§1) Although the precise mechanism(s) by which AICA-riboside augments antibody responses in vivo is presently unknown, some points are noteworthy in light of the present invention. […] A qualitative change of the humoral response is also observed, as immunoglobulins of the IgG isotype (generally detected only during the secondary response) are already detected during the primary response in animals treated with antigen/AICA-riboside formulations. […] The immuno-potentiating effect of AICA-riboside in combination with said antigen is as good when the compounds are administered mixed together (co-administered) as when administered separately or sequentially. […] The use of this agent therefore probably precludes local pain after injection.

murine lymphocytes = experiment: In vitro response of murine lymphocytes, cytokine secretion; type: cell-based
Description: as §1

humans = conditions: all dose levels (10 to 100 mg/kg); cited from earlier work
BALB/c mice [10] = experiment: Primary and secondary antibody response to Ars-KLH with oligomycin, serum ELISA (Example 11); type: in vivo; conditions: oligomycin 10 μg i.p. with Ars-KLH 50 μg, vs antigen alone; primary (day 21) and secondary (14 days after boost)
Method: BALB/C mice were injected intraperitoneally with Ars-KLH (50 μg) mixed with saline, AICA-riboside (3 mg) or oligomycin (10 μg). 21 days after immunization, mice were bled and serum levels of Ars-specific antibodies (primary response) were determined by ELISA according to standard procedure using isotype-specific rat mAb. […] On day 22, all mice received a second injection of Ars-KLH (50 μg) intrapertioneally. Mice were bled 14 days after the antigen boost and serum levels of Ars-KLH-specific antibodies (secondary response) were determined by ELISA.

Question: Which “antigen (NP)-specific antibody response” value (BALB/c mice [1]; AICA-riboside 10 mg co-administered i.p. with NP-KLH 100 μg, vs antigen alone, bled Height days after immunization) does the source give for `NC(=O)c1ncn([C@@H]2O[C@H](CO)[C@@H](O)[C@H]2O)c1N` [AICA-riboside, 5-aminoimidazole-4-carboxamide riboside] here?
Answer: Its value is “increased antigen-specific antibody response”.

Question: What about the “antigen (NP)-specific antibody response” value (BALB/c mice [1]; AICA-riboside 10 mg i.p. alone, without antigen) of the same compound?
Answer: Its value is “does not lead to an increased, antigen-specific antibody response”.

Question: And the “antigen-specific IgM response” value (BALB/c mice [2]; 10 mg i.p. with Ars-KLH 100 μg, vs antigen without adjuvant)?
Answer: The value was “unaffected”.

Question: And the “antigen-specific IgG antibodies” value (BALB/c mice [2]; 10 mg i.p. with Ars-KLH 100 μg, vs antigen without adjuvant, primary (day 21) and secondary (8 days after boost) response)?
Answer: The value was “increased levels of antigen-specific IgG antibodies”.

Question: And the “immuno-stimulatory properties compared with Alum” value (BALB/c mice [2]; AICA-riboside 10 mg vs Alum 50 μl, each with Ars-KLH 100 μg i.p.)?
Answer: Its value is “comparable to the Alum adjuvant”.

Question: And the “antigen-specific response, day 120” value (BALB/c mice [2]; bled 120 days after first encounter with antigen, vs antigen alone)?
Answer: Its value is “long-lasting increase in antigen-specific response”.

Question: And the “antibody response to protein antigen HGG” value (BALB/c mice [3])?
Answer: The value was “augments the antibody response”.

Question: And the “adjuvant activity over dose range” value (BALB/c mice [4])?
Answer: Its value is “can act as an adjuvant over a wide range of doses”.

Question: And the “adjuvant effect depending on time of injection” value (BALB/c mice [5])?
Answer: The value was “only manifest when AICA-riboside is injected at the same moment with the antigen”.

Question: And the “antigen-specific antibody responses in the absence of CD4-expressing T cells” value (BALB/c mice [6])?
Answer: The value was “does not augment the antigen-specific antibody responses”.

Question: And the “swelling of the lymph node draining the injection site” value (BALB/c mice [7])?
Answer: Its value is “does not induce the swelling”.

Question: What about the “GR-1-expressing inflammatory cell recruitment / cellular infiltrates” value (BALB/c mice [8]) of the same compound?
Answer: Its value is “minimal GR-1-expressing cells recruitment to sites distant from the injection site”.

Question: And the “tissue necrosis at injection site” value (BALB/c mice [8])?
Answer: The value was “no tissue necrosis or abnormality”.

Question: And the “antigen-specific IgG antibodies” value (BALB/c mice [9])?
Answer: Its value is “increased levels of antigen-specific IgG antibodies”.

Question: And the “Ars specific antibodies concentrations” value (BALB/c mice [9]; serum 19 days after immunization, Ars-KLH+saline control 0.04)?
Answer: The value was 1.607 ± 0.521 µg/mL.

Question: What about the “local inflammatory response following injection” value (mice; injection into mice) of the same compound?
Answer: The value was “no local inflammatory response was observed”.

Question: And the “boost of serum antibody response above unadjuvanted antigens” value (mice; mixed in aqueous solutions with protein antigens, mice)?
Answer: The value was “five to ten folds”.

Question: And the secretion of cytokines (murine lymphocytes; in response to bacterial mitogens, lectins or protein antigens)?
Answer: The secretion of cytokines was “did not affect the secretion of cytokines”.

Question: And the “enhancing effect on in vitro response of murine lymphocytes” value (murine lymphocytes; in vitro)?
Answer: Its value is “no enhancing effect”.

Question: What about the tolerability in humans (humans) of the same compound?
Answer: Its tolerability in humans is “well tolerated”.

Question: With `CC[C@H]1/C=C/C=C/C[C@@H](C)[C@H](O)[C@@](C)(O)C(=O)[C@@H](C)[C@H](O)[C@@H](C)C(=O)[C@@H](C)[C@H](O)[C@@H](C)/C=C/C(=O)O[C@@H]2[C@H](C)[C@H](CC1)O[C@]1(CC[C@H](C)[C@H](C[C@@H](C)O)O1)[C@H]2C` [oligomycin] as the compound, how does the “antigen-specific IgG antibodies” value (BALB/c mice [10]) read?
Answer: The value was “increased levels of antigen-specific IgG antibodies; also recorded: increases antibody responses”.

Question: For `OC[C@H]1O[C@@H](n2cnc3c(S)ncnc32)[C@H](O)[C@@H]1O` [6-MPR, 6-mercaptopurine riboside], which “antigen-specific IgG antibodies” value (BALB/c mice [9]) is on record?
Answer: Its value is “increased levels of antigen-specific IgG antibodies”.
